Data: patent US5371186A, “Synthetic peptides for detoxification of bacterial endotoxins and for the prevention and treatment of septic shock” (priority 1992, dated 1994)
Bridge positions count the residues as written; N and C are the ends. Ends that are not written are not given here. Peptide text beside a SMILES is read from it. * marks the point of attachment. Biotin = O=C1N[C@H]2[C@H](CS[C@H]2CCCCC(=O)*)N1

Legend:
trypsin in human serum = test: stability towards proteolysis by trypsin in human serum; format: in vitro ADME
Procedure: (§1) The effects of trypsin present in human serum on Polymyxin "B" and the peptides of invention was determined by combining 10 μl of human serum with 20 μg of the given peptide in 10 μl volume and holding the mixture at a temperature of 37° C. for different intervals of time. At various times, an aliquot of the mixture was processed by HPLC analysis in order to detect the residual amount of the investigated peptide. In Table VI the half-lives time of each peptide investigated are shown as compared to the half-life time of Polymyxin "B".

trypsin = test: as above; format: in vitro ADME; details: human serum, 37° C., 180 mins; read-out: AMOUNT RECOVERED % after 180 mins
Procedure: as §1

Avidin = Avidin (Gallus gallus, UniProt P02701); details: cited from earlier work
[1] = prevention of endotoxin-induced death in CD1 mice sensitized with Actinomycin D; format: in vivo, mice (Strain CD1); details: 0.1 mg/mouse i.v., 1 μg endotoxin i.p.; for Mice surviving: 20 mice per group
Procedure: Prevention of endotoxin-induced death in mice, has been achieved by intravenous injection of the peptides of the invention. For this experiment, a strain of mice highly sensitive to the lethal activity of bacterial endotoxin has been used. Mice sensitized with Actinomycin D (Strain CD1) show a high sensitivity to extremely low doses of endotoxin. A dose as low as 1 μg of endotoxin per mouse (about 40 μg/kg of body weight) is able to completely kill a population of mice within 24-48 hours.
Groups of 20 mice CD1 have been treated intravenously with the peptides of the invention, with a single dose of 0.1 mg peptide, solubilized in sterile saline, per mouse. Thirty minutes later, mice were challenged by intraperitoneal injection of 1 μg of endotoxin purified from E. Coli strain 055-B5. Surviving mice were recorded every 24 hours during a seven days-period of observation. […] Negative controls received an intravenous injection of saline.
There were 20 mice per group. Mice surviving at each of the seven 24 hours observation periods are listed. The % survival appears in parenthesis. P expresses the level of statistical significance calculated by "t-Test" for each molecule compared to the treatment with saline, considering the total survival rate in each group.

Chain of Avidin (P02701 25-152, species assumed): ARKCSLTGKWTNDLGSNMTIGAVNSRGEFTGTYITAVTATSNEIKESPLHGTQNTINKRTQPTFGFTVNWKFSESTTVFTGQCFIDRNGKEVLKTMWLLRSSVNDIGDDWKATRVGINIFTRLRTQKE

| Compound | Half-Life Time (t/2) (trypsin in human serum; human serum, 37° C.) | remaining at 3 h, 1 mg/mL (trypsin) [%] | also measured |
| --- | --- | --- | --- |
| CC(C)C[C@@H]1NC(=O)[C@H](CCCCN)NC(=O)[C@H](CCCCN)NC(=O)[C@@H](N)CSSC[C@@H](C(=O)N[C@@H](CCCCN)C(=O)N[C@H](C(=O)O)[C@@H](C)O)NC(=O)[C@H](CCCCN)NC(=O)[C@H](Cc2ccccc2)NC1=O [Peptide V] (H-CKKLFKCKT-OH; disulfide 1-7) | 240 min | 55 |  |
| CC(C)C[C@@H]1NC(=O)[C@H](Cc2ccccc2)NC(=O)[C@H](CCCCN)NC(=O)[C@@H](NC(=O)[C@H](CCCCN)NC(=O)[C@@H](NC(=O)[C@@H](N)CCCCN)[C@@H](C)O)CSSC[C@@H](C(=O)O)NC(=O)[C@H](CCCCN)NC(=O)[C@H](CCCCN)NC1=O [Peptide II] (H-KTKCKFLKKC-OH; disulfide 4-10) | 50 min | 10 |  |
| RYVRYVRYV [Peptide X] | 35 min | 0 |  |
| IKTKKFLKKT [Peptide VII] | 50 min | 28 |  |
| CC[C@H](C)[C@H](NC(=O)CCCC[C@@H]1SC[C@@H]2NC(=O)N[C@@H]21)C(=O)N[C@@H](CCCCN)C(=O)N[C@H](C(=O)N[C@@H](CCCCN)C(=O)N[C@H]1CSSC[C@@H](C(=O)O)NC(=O)[C@H](CCCCN)NC(=O)[C@H](CCCCN)NC(=O)[C@H](CC(C)C)NC(=O)[C@H](Cc2ccccc2)NC(=O)[C@H](CCCCN)NC1=O)[C@@H](C)O [labeled Peptide VI] (Biotin-IKTKCKFLKKC-OH; disulfide 5-11) |  |  | Half-Life Time (t/2) (trypsin in human serum; human serum or human whole blood, not significantly different from the unlabeled value): ~1200 min |
| CC(C)C[C@@H]1NC(=O)[C@H](CCCCN)NC(=O)[C@H](CCCCN)NC(=O)[C@@H](N)CSSC[C@@H](C(=O)N[C@@H](CCCCN)C(=O)N[C@H](C(=O)N[C@@H](CCCCN)C(=O)O)[C@@H](C)O)NC(=O)[C@H](CCCCN)NC(=O)[C@H](Cc2ccccc2)NC1=O [Peptide IV] (H-CKKLFKCKTK-OH; disulfide 1-7) | 18 min | 0 |  |
| IKFLKFLKFLK [Peptide VIII] | 7 min | 0 |  |
| O=C(O)CCCC[C@@H]1SC[C@@H]2NC(=O)N[C@@H]21 [Biotin] |  |  | K of the reaction with Avidin (Avidin): 10^15 |
| KFLKFLK [Peptide IX] | 10 min | 0 |  |
| CC[C@H](C)[C@H](N)C(=O)N[C@@H](CCCCN)C(=O)N[C@H](C(=O)N[C@@H](CCCCN)C(=O)N[C@H]1CSSC[C@@H](C(=O)O)NC(=O)[C@H](CCCCN)NC(=O)[C@H](CCCCN)NC(=O)[C@H](CC(C)C)NC(=O)[C@H](Cc2ccccc2)NC(=O)[C@H](CCCCN)NC1=O)[C@@H](C)O [Peptide VI] (H-IKTKCKFLKKC-OH; disulfide 5-11) | 1,080 min | 76 |  |
| CN(C)CCCN1c2ccccc2Sc2ccc(Cl)cc21 [CPZ, Chlorpromazine] |  |  | % survival ([1]; 24 hs): 50%; Mice surviving ([1]; 24 hs): 10; % survival ([1]; 48 hs): 50%; Mice surviving ([1]; 48 hs): 10; % survival ([1]; 72 hs): 50%; Mice surviving ([1]; 72 hs): 10; % survival ([1]; 96 hs): 50%; Mice surviving ([1]; 96 hs): 10; % survival ([1]; 120 hs): 50%; Mice surviving ([1]; 120 hs): 10; % survival ([1]; 144 hs): 50%; Mice surviving ([1]; 144 hs): 10; % survival ([1]; 168 hs): 50%; Mice surviving ([1]; 168 hs): 10 |
| CC(C)C[C@@H]1NC(=O)[C@H](Cc2ccccc2)NC(=O)[C@H](CCCCN)NC(=O)[C@@H](N)CSSC[C@@H](C(=O)O)NC(=O)[C@H](CCCCN)NC(=O)[C@H](CCCCN)NC1=O [Peptide I] (H-CKFLKKC-OH; disulfide 1-7) | > 180 min | 70 |  |
